Patent EP0153845A2, “CRF analogs” (THE SALK INSTITUTE FOR BIOLOGICAL STUDIES, priority 1984, dated 1985)
Square brackets hold non-standard residues; d marks the D form. Ends that are not written are not given here. Peptide text beside a SMILES is read from it. hArg = N=C(N)NCCCC[C@H](N)C(=O)O; Nle = CCCC[C@H](N)C(=O)O; Orn = NCCC[C@H](N)C(=O)O

Experiments:
[1] = target: T1, cultured rat pituitary cells (Rattus norvegicus, UniProt P35353); assay: Block of ACTH and β-endorphin secretion by cultured rat pituitary cells by CRF antagonists (procedure of Example XLIII); format: cell-based; details: general procedure of Example XLIII
T1 sequence (P35353 24-415): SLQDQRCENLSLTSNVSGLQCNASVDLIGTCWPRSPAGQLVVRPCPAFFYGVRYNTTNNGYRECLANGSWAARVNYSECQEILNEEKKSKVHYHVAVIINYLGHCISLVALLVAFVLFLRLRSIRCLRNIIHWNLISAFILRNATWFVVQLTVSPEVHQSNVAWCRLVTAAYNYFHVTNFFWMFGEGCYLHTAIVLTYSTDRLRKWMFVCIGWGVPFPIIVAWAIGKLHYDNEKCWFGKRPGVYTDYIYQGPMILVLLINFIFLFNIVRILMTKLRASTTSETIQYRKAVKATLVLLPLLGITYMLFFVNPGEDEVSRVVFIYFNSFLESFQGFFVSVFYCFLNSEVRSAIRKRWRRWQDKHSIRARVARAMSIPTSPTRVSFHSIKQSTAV
Experimental: The effectiveness of synthetic CRF antagonists to block the secretion of ACTH and B-endorphin by cultured rat pituitary cells is measured using the procedure as generally set forth in Vale et al., Endocrinology, 91, 562 (1972). In vivo testing is carried out using the general procedure set forth in C. Rivier et al., Science, 218, 377 (1982).

[2] = Lowering of blood pressure, in vivo testing by the general procedure of Example III
[3] = target: T1, cultured rat pituitary cells; assay: Stimulation of ACTH and β-endorphin secretion by cultured rat pituitary cells (general procedure of Example III); format: cell-based; details: general procedure of Example III
Experimental: The synthetic peptide AHC and oCRF were examined for their effects on the secretion of ACTH and B-endorphin in vitro and was also in vivo. The potency of synthetic oCRF to stimulate the secretion of ACTH and β-endorphin by cultured rat pituitary cells was measured using the procedure as generally set forth in Endocrinology, 91, 562 (1972). […] In.vivo testing is carried out using the general procedure set forth in C. Rivier et al., Science, 218, 377 (1982).

Compound | secretion of ACTH and β-END-LI (antagonist test) [1] | lowering of blood pressure [2] | secretion of ACTH and β-END-LI [3]
CCCC[C@H](NC(=O)[C@@H](NC(=O)[C@H](CCC(=O)O)NC(=O)[C@H](CC(C)C)NC(=O)[C@H](CC(C)C)NC(=O)[C@H](CCCCN)NC(=O)[C@H](CCCNC(=N)N)NC(=O)[C@H](CC(N)=O)NC(=O)[C@H](CO)NC(=O)[C@H](Cc1c[nH]cn1)NC(=O)[C@H](C)NC(=O)[C@H](CCC(N)=O)NC(=O)[C@H](CCC(N)=O)NC(=O)[C@H](C)NC(=O)[C@H](CC(C)C)NC(=O)[C@H](CCC(N)=O)NC(=O)[C@H](CCC(=O)O)NC(=O)[C@H](C)NC(=O)[C@H](CCCNC(=N)N)NC(=O)[C@H](C)NC(=O)[C@H](C)NC(=O)[C@H](CCC(=O)O)NC(=O)[C@H](CC(C)C)NC(=O)[C@@H](NC(=O)[C@H](CCC(=O)O)NC(=O)[C@H](CCCNC(=N)N)NC(=O)[C@H](CC(C)C)NC(=O)[C@H](CC(C)C)NC(=O)[C@H](Cc1c[nH]cn1)NC(=O)[C@H](Cc1ccccc1)NC(=O)[C@@H](NC(=O)[C@H](CC(C)C)NC(=O)[C@@H](N)CC(=O)O)[C@@H](C)O)C(C)C)[C@@H](C)CC)C(N)=O [[Ala, Leu^38, Nle^41]-hCRF(9-41)] (H-DLTFHLLREVLEAARAEQLAQQAHSNRKLLEI[Nle]-NH2) | inhibits |  | 
CCCC[C@H](NC(=O)[C@@H](NC(=O)[C@@H](N)CC(C)C)[C@@H](C)O)C(=O)N[C@@H](Cc1c[nH]cn1)C(=O)N[C@@H](CC(C)C)C(=O)N[C@@H](CC(C)C)C(=O)N[C@@H](CCCNC(=N)N)C(=O)N[C@@H](CCC(=O)O)C(=O)N[C@H](C(=O)N[C@@H](CC(C)C)C(=O)N[C@@H](CCC(=O)O)C(=O)N[C@@H](CCSC)C(=O)N[C@@H](C)C(=O)N[C@@H](CCCNC(=N)N)C(=O)N[C@@H](C)C(=O)N[C@@H](CCC(=O)O)C(=O)N[C@@H](CCC(N)=O)C(=O)N[C@@H](CC(C)C)C(=O)N[C@@H](C)C(=O)N[C@@H](CCC(N)=O)C(=O)N[C@@H](CCC(N)=O)C(=O)N[C@@H](C)C(=O)N[C@@H](Cc1c[nH]cn1)C(=O)N[C@@H](CO)C(=O)N[C@@H](CC(N)=O)C(=O)N[C@@H](CCCNC(=N)N)C(=O)N[C@@H](CCCCN)C(=O)N[C@@H](CC(C)C)C(=O)N[C@@H](CCSC)C(=O)N[C@@H](CCC(=O)O)C(=O)N[C@H](C(=O)N[C@H](C(N)=O)[C@@H](C)CC)[C@@H](C)CC)C(C)C [[N1e^12]-hCRF(10-41)] (H-LT[Nle]HLLREVLEMARAEQLAQQAHSNRKLMEII-NH2) | inhibits |  | 
CCCC[C@H](NC(=O)[C@H](CCC(=O)O)NC(=O)[C@H](CCCNC(=N)N)NC(=O)[C@H](CC(C)C)NC(=O)[C@H](CC(C)C)NC(=O)[C@H](Cc1c[nH]cn1)NC(=O)[C@H](Cc1ccccc1)NC(=O)[C@@H](NC(=O)[C@H](CC(C)C)NC(=O)[C@H](CC(=O)O)NC(=O)[C@H](CC(C)C)NC(=O)[C@H](CO)NC(=O)[C@@H](NC(=O)[C@@H]1CCCN1C(=O)[C@@H]1CCCN1C(=O)[C@H](CCC(=O)O)NC(=O)[C@@H](N)CCC(N)=O)[C@@H](C)CC)[C@@H](C)O)C(=O)N[C@@H](CC(C)C)C(=O)N[C@@H](CCC(=O)O)C(=O)N[C@@H](CCSC)C(=O)N[C@H](C(=O)N[C@@H](CCCCN)C(=O)N[C@@H](C)C(=O)N[C@@H](CC(=O)O)C(=O)N[C@@H](CCC(N)=O)C(=O)N[C@@H](CC(C)C)C(=O)N[C@@H](C)C(=O)N[C@@H](CCC(N)=O)C(=O)N[C@@H](CCC(N)=O)C(=O)N[C@@H](C)C(=O)N[C@@H](Cc1c[nH]cn1)C(=O)N[C@@H](CO)C(=O)N[C@@H](CC(N)=O)C(=O)N[C@@H](CCCNC(=N)N)C(=O)N[C@@H](CCCCN)C(=O)N[C@@H](Cc1ccc(O)cc1)C(=O)N[C@@H](CC(C)C)C(=O)N[C@@H](CC(=O)O)C(=O)N[C@@H](CCC(=O)O)C(=O)N[C@@H](C)C(N)=O)[C@@H](C)O [[Nle^18,Tyr^37,Glu^40]-oCRF(2-41)] (H-QEPPISLDLTFHLLRE[Nle]LEMTKADQLAQQAHSNRKYLDEA-NH2) |  | very significant lowering of blood pressure | stimulates
Ac-GEEPPISLDLTFHLLREVLEMARAEQLAQQAHLNRKLMEEI-NH2 [[Acetyl-Gly^1, Leu^33, Glu^40]-rCRF] |  | very significant lowering of blood pressure | stimulates
Ac-PPISLDLTFHLLREVLEMARAEQLAEQAHSNRKYMEEI-NH2 |  | very significant lowering of blood pressure to a greater extent than rCRF | stimulates
H-PPISIDLSLELLRKMIEIAKQEKEKEQAANNRLLMDTI-NH2 |  | very significant lowering of blood pressure | stimulates
H-PPISLDLTFHLLREVLEMARAEQLAQQAHLNRKLMEEI-NH2 |  | very significant lowering of blood pressure | stimulates
H-SEEPPISLDLTFHLLREVLE[Nle]ARAEQLAQQAYLNRKLMEEI-NH2 [[Nle^21, Tyr^32, Leu^33, Glu^40]-rCRF] |  | very significant lowering of blood pressure to a greater extent than rCRF | stimulates
H-SEEPPISLDLTFHLLREVLE[Nle]A[hArg]AEQLAQQAHLNRKLMEE[Nle]-NH2 |  | very significant lowering of blood pressure | stimulates
H-SEEPPISLDLTLELLREMLEME[Orn]AEKEAEQAALNRLLLEEA-NH2 |  | very significant lowering of blood pressure | stimulates
H-SEEPPISLELTFHLLREVLE[Nle]ARAEQLAEQAHLNRKLMEII-NH2 [[Glu^9, Nle^21, Glu^29, Leu^33]-rCRF] |  | very significant lowering of blood pressure to a greater extent than rCRF | stimulates
H-SEEPPIS[Nle]DLSFHLLREVLEMARAEQLAQQAHLNRKLMEEI-NH2 [[Nle^8, Ser^11, Leu^33, Glu^40]-rCRF] |  | very significant lowering of blood pressure | stimulates
H-SQEPPISLDLTFALLREMLEMAKAEQEAEQAALNRLLLEEA-NH2 [[Ala^13]-AHC] |  | very significant lowering of blood pressure | stimulates
H-SQEPPISLDLTFHLLREVLE[Nle]TKADQLAEQAHSNRKLLDIA-NH2 [[Nle^21,Glu^29]-oCRF] |  | very significant lowering of blood pressure | stimulates
H-SQEPPISLDLTFHLLRE[Nle]LE[Nle]AKAEQEAEQAALNRLLLEEA-NH2 [[Nle^18, ^21]-AHC] |  | very significant lowering of blood pressure | stimulates
H-SQEPPISLDLTFHLLRE[Nle]LE[Nle]TKADQLRQQAHSNRKLLDIA-NH2 [[Nle^18,21,Arg^28]-oCRF] |  | very significant lowering of blood pressure | stimulates
H-SQEPPISLDLTLELLREMLEMAKAEQEAEQAALNRLYLEEA-NH2 [[Leu^12, G1u^13, Tyr^37]-AHC] |  | very significant lowering of blood pressure | stimulates
H-SQEPPISLELTFHLLRE[Nle]LE[Nle]AKAEQEAEQAALNRLLLEEA-NH2 [[Glu^9, Nle^18' ^21]-AHC] |  | very significant lowering of blood pressure | stimulates
H-SQE[dP]PISLDLTFHLLRE[Nle]LE[Nle]AKAEQEAEQAALNRLLLEEA-NH2 [[D-Pro^4, Nle^18,21]-AHC] |  | very significant lowering of blood pressure | stimulates
H-SQ[dY][dP]PISLDLTFHLLRE[Nle]LE[Nle]AKAEQEAEQAALNRLLLEEA-NH2 [[D-Tyr^3, D-Pro^4, Nle^18, ^21]-AHC] |  | very significant lowering of blood pressure | stimulates
H-YSEEPPISLDLTFHLLREVLEMARAEQLAEQAHSNRKLMEII-NH2 [[Tyr-Ser^1, Glu^29]-rCRF] |  | very significant lowering of blood pressure | stimulates
SEEPPISLDLTFHLLREVLEMTRAEQLAEQAHSNRKLMEEI-NH2 [[Thr^22, Glu^29,40]-rCRF] |  | very significant lowering of blood pressure | stimulates
SQEPPISLDLTFHLLREVLEMA[Orn]AEQLAEQAHSNRKLLEII-NH2 [[Gln^2, Orn^23, Glu^29, Leu^38]-rCRF] |  | very significant lowering of blood pressure | stimulates
